#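 In this assay, cells in 96-well plates receive the compound at five concentrations for 48 hours. Endpoints are linearly interpolated between the surrounding concentrations. At the GI50, growth is halved.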 The source made the active and inactive calls. No stated cut-off is given here; in the data, active = GI50 up to about 1.1 µM and inactive = higher.
# Assays:
# Test in all cases: NCI anticancer screen, dose series, 48 h
# 786-0 = system: 786-0
# A498 = system: A498
# A549 = system: A549
# ACHN = system: ACHN
# CAKI-1 = system: CAKI-1
# CCRF-CEM = system: CCRF-CEM
# COLO 205 = system: COLO 205
# DLD-1 = system: DLD-1
# DMS-114 = system: DMS-114
# EKVX = system: EKVX
# HCC 2998 = system: HCC 2998
# HCT-116 = system: HCT-116
# HCT-15 = system: HCT-15
# HL-60 = system: HL-60
# HOP-18 = system: HOP-18
# HOP-62 = system: HOP-62
# HOP-92 = system: HOP-92
# HT-29 = system: HT-29
# IGROV-1 = system: IGROV-1
# K562 = system: K562
# KM-20L2 = system: KM-20L2
# KM12 = system: KM12
# LOX IMVI = system: LOX IMVI
# LXFL 529 = system: LXFL 529
# M14 = system: M14
# M19-MEL = system: M19-MEL
# MOLT-4 = system: MOLT-4
# Malme-3M = system: Malme-3M
# NCI-H226 = system: NCI-H226
# NCI-H23 = system: NCI-H23
# NCI-H460 = system: NCI-H460
# NCI-H522 = system: NCI-H522
# OVCAR-3 = system: OVCAR-3
# OVCAR-4 = system: OVCAR-4
# OVCAR-5 = system: OVCAR-5
# OVCAR-8 = system: OVCAR-8
# RPMI-8226 = system: RPMI-8226
# RXF 393 = system: RXF 393
# SF-268 = system: SF-268
# SF-295 = system: SF-295
# SF-539 = system: SF-539
# SK-MEL-28 = system: SK-MEL-28
# SK-MEL-2 = system: SK-MEL-2
# SK-OV-3 = system: SK-OV-3
# SN12C = system: SN12C
# SNB-19 = system: SNB-19
# SNB-78 = system: SNB-78
# SR = system: SR
# SW-620 = system: SW-620
# TK-10 = system: TK-10
# U-251 = system: U-251
# UACC-257 = system: UACC-257
# UACC-62 = system: UACC-62
# UO-31 = system: UO-31
# DMS-273 = system: DMS-273
# SK-MEL-5 = system: SK-MEL-5
# SNB-75 = system: SNB-75
compound,measurement,setting,value
CCc1cccc(CC)c1NC(=O)C(=O)Cc1nc2ccccc2o1,GI50,786-0,> 100 µM (inactive)
same,GI50,A498,> 100 µM (inactive)
same,GI50,A549,> 100 µM (inactive)
same,GI50,ACHN,> 100 µM (inactive)
same,GI50,CAKI-1,> 100 µM (inactive)
same,GI50,CCRF-CEM,> 100 µM (inactive)
same,GI50,COLO 205,> 100 µM (inactive)
same,GI50,DLD-1,> 100 µM (inactive)
same,GI50,DMS-114,> 100 µM (inactive)
same,GI50,EKVX,> 100 µM (inactive)
same,GI50,HCC 2998,> 100 µM (inactive)
same,GI50,HCT-116,> 100 µM (inactive)
same,GI50,HCT-15,> 100 µM
same,GI50,HL-60,> 100 µM (inactive)
same,GI50,HOP-18,> 100 µM (inactive)
same,GI50,HOP-62,> 100 µM (inactive)
same,GI50,HOP-92,> 100 µM (inactive)
same,GI50,HT-29,> 100 µM (inactive)
same,GI50,IGROV-1,> 100 µM (inactive)
same,GI50,K562,> 100 µM (inactive)
same,GI50,KM-20L2,> 100 µM (inactive)
same,GI50,KM12,> 100 µM (inactive)
same,GI50,LOX IMVI,> 100 µM (inactive)
same,GI50,LXFL 529,> 100 µM (inactive)
same,GI50,M14,> 100 µM (inactive)
same,GI50,M19-MEL,> 100 µM (inactive)
same,GI50,MOLT-4,> 100 µM (inactive)
same,GI50,Malme-3M,> 100 µM (inactive)
same,GI50,NCI-H226,> 100 µM (inactive)
same,GI50,NCI-H23,> 100 µM (inactive)
same,GI50,NCI-H460,> 100 µM (inactive)
same,GI50,NCI-H522,> 100 µM (inactive)
same,GI50,OVCAR-3,> 100 µM (inactive)
same,GI50,OVCAR-4,> 100 µM (inactive)
same,GI50,OVCAR-5,> 100 µM (inactive)
same,GI50,OVCAR-8,> 100 µM (inactive)
same,GI50,RPMI-8226,> 100 µM (inactive)
same,GI50,RXF 393,> 100 µM (inactive)
same,GI50,SF-268,> 100 µM (inactive)
same,GI50,SF-295,> 100 µM (inactive)
same,GI50,SF-539,> 100 µM (inactive)
same,GI50,SK-MEL-28,> 100 µM (inactive)
same,GI50,SK-MEL-2,> 100 µM (inactive)
same,GI50,SK-OV-3,> 100 µM (inactive)
same,GI50,SN12C,> 100 µM (inactive)
same,GI50,SNB-19,> 100 µM (inactive)
same,GI50,SNB-78,> 100 µM (inactive)
same,GI50,SR,> 100 µM (inactive)
same,GI50,SW-620,> 100 µM (inactive)
same,GI50,TK-10,> 100 µM (inactive)
same,GI50,U-251,> 100 µM (inactive)
same,GI50,UACC-257,> 100 µM (inactive)
same,GI50,UACC-62,> 100 µM (inactive)
same,GI50,UO-31,> 100 µM (inactive)
C[n+]1c2ccccc2c(CNc2ccc(S(=O)(=O)N=C(N)N)cc2)c2ccccc21,GI50,786-0,6.84 µM (inactive)
same,GI50,A498,17.4 µM (inactive)
same,GI50,A549,6.17 µM (inactive)
same,GI50,ACHN,6.95 µM (inactive)
same,GI50,CAKI-1,1.72 µM (inactive)
same,GI50,CCRF-CEM,1.45 µM (inactive)
same,GI50,DLD-1,17.3 µM (inactive)
same,GI50,DMS-114,2.65 µM (inactive)
same,GI50,DMS-273,2.94 µM (inactive)
same,GI50,EKVX,21 µM (inactive)
same,GI50,HCC 2998,15.1 µM (inactive)
same,GI50,HCT-116,5.78 µM (inactive)
same,GI50,HCT-15,10.2 µM
same,GI50,HL-60,1.46 µM (inactive)
same,GI50,HOP-62,4.09 µM (inactive)
same,GI50,HOP-92,5.24 µM (inactive)
same,GI50,HT-29,20.2 µM (inactive)
same,GI50,IGROV-1,16.3 µM (inactive)
same,GI50,K562,6.78 µM (inactive)
same,GI50,KM-20L2,13.6 µM (inactive)
same,GI50,KM12,13.2 µM (inactive)
same,GI50,LOX IMVI,3.29 µM (inactive)
same,GI50,M14,6.05 µM (inactive)
same,GI50,M19-MEL,14.5 µM (inactive)
same,GI50,MOLT-4,0.311 µM (active)
same,GI50,Malme-3M,13.6 µM (inactive)
same,GI50,NCI-H226,1.6 µM (inactive)
same,GI50,NCI-H23,5.31 µM (inactive)
same,GI50,NCI-H460,0.61 µM (active)
same,GI50,NCI-H522,9.77 µM (inactive)
same,GI50,OVCAR-3,19.8 µM (inactive)
same,GI50,OVCAR-4,29.1 µM (inactive)
same,GI50,OVCAR-5,43.7 µM (inactive)
same,GI50,OVCAR-8,9.66 µM (inactive)
same,GI50,RPMI-8226,2.7 µM (inactive)
same,GI50,RXF 393,15.1 µM (inactive)
same,GI50,SF-268,7.06 µM (inactive)
same,GI50,SF-295,3.6 µM (inactive)
same,GI50,SF-539,3.24 µM (inactive)
same,GI50,SK-MEL-28,12.4 µM (inactive)
same,GI50,SK-MEL-2,24.8 µM (inactive)
same,GI50,SK-MEL-5,6.92 µM (inactive)
same,GI50,SK-OV-3,46 µM (inactive)
same,GI50,SN12C,3.16 µM (inactive)
same,GI50,SNB-19,4.05 µM (inactive)
same,GI50,SNB-75,4.13 µM (inactive)
same,GI50,SNB-78,19.9 µM (inactive)
same,GI50,SW-620,6.95 µM (inactive)
same,GI50,TK-10,29.4 µM (inactive)
same,GI50,U-251,5.14 µM (inactive)
same,GI50,UACC-257,16 µM (inactive)
same,GI50,UACC-62,10.4 µM (inactive)
same,GI50,UO-31,14.4 µM (inactive)
Cc1ccc(C(=O)NC(C)(C)C)cc1/N=N/N(C)C,GI50,786-0,> 100 µM (inactive)
same,GI50,A549,> 100 µM (inactive)
same,GI50,ACHN,> 100 µM (inactive)
same,GI50,CAKI-1,> 100 µM (inactive)
same,GI50,DLD-1,> 100 µM (inactive)
same,GI50,DMS-273,> 100 µM (inactive)
same,GI50,EKVX,> 100 µM (inactive)
same,GI50,HCC 2998,> 100 µM (inactive)
same,GI50,HCT-116,> 100 µM (inactive)
same,GI50,HCT-15,> 100 µM
same,GI50,HOP-62,> 100 µM (inactive)
same,GI50,HOP-92,> 100 µM (inactive)
same,GI50,HT-29,> 100 µM (inactive)
same,GI50,IGROV-1,> 100 µM (inactive)
same,GI50,KM-20L2,> 100 µM (inactive)
same,GI50,KM12,> 100 µM (inactive)
same,GI50,LOX IMVI,> 100 µM (inactive)
same,GI50,LXFL 529,> 100 µM (inactive)
same,GI50,M14,> 100 µM (inactive)
same,GI50,NCI-H23,> 100 µM (inactive)
same,GI50,NCI-H460,> 100 µM (inactive)
same,GI50,NCI-H522,50.5 µM (inactive)
same,GI50,OVCAR-3,69.5 µM (inactive)
same,GI50,OVCAR-4,> 100 µM (inactive)
same,GI50,OVCAR-8,> 100 µM (inactive)
same,GI50,SF-268,42 µM (inactive)
same,GI50,SF-295,> 100 µM (inactive)
same,GI50,SF-539,> 100 µM (inactive)
same,GI50,SK-MEL-28,> 100 µM (inactive)
same,GI50,SK-MEL-2,> 100 µM (inactive)
same,GI50,SK-MEL-5,> 100 µM (inactive)
same,GI50,SN12C,> 100 µM (inactive)
same,GI50,SNB-19,60.7 µM (inactive)
same,GI50,SNB-78,> 100 µM (inactive)
same,GI50,SW-620,> 100 µM (inactive)
same,GI50,TK-10,> 100 µM (inactive)
same,GI50,U-251,> 100 µM (inactive)
same,GI50,UACC-257,> 100 µM (inactive)
same,GI50,UACC-62,> 100 µM (inactive)
same,GI50,UO-31,> 100 µM (inactive)
